Measured values: patent publication US9980943B2, “Methods of treating muscular dystrophy” (BOARD OF REGENTS OF THE NEVADA SYSTEM OF HIGHER EDUCATION, …, priority 2013, dated 2018)
Read-outs that look alike come from different tables or passages of the source.

Test system: α7 integrin (LacZ reporter in α7LacZ+/− myoblasts)
Assay: qHTS of the LOPAC library and MLSMR (online screen, α7LacZ+/− myoblasts)
Conditions: for activation at 0.307 µM / activation at 1.53 µM / activation at 7.66 µM / activation at 38.3 µM / Emax / EC50: Mus musculus, Myoblast; for activation at 0.307 µM: read-out: Activity at 0.307 uM [%] **; for activation at 1.53 µM: read-out: Activity at 1.530 uM [%] **; for activation at 7.66 µM: read-out: Activity at 7.660 uM [%] **; for activation at 38.3 µM: read-out: Activity at 38.30uM [%] **; for EC50: read-out: Fit LogAC50 (converted)
[1] = 48 h, read-out: Fit Infinite Activity [%]

SMILES	activation at 0.307 µM (48 h) [%]	activation at 1.53 µM (48 h) [%]	activation at 7.66 µM (48 h) [%]	activation at 38.3 µM (48 h) [%]	Emax [1] [%]	EC50 [µM]	Emax (read-out: Max Response [%]) [%]	Score (Table 8 Compound data)	Curve Description	Score
O=S(=O)(N/C(=N/C1CCCCC1)c1ccccc1F)c1ccccc1 [Compound 156]	0	0	22.9	65.3	67.8	10	65.3			
CCCCN(CCCC)CCNC(=O)c1cn(C)c2ccc(S(=O)(=O)N(C)C3CCCCC3)cc2c1=O [Compound 157]	-0.706	-3.27	17.7	67.5	68.2	10	67.5	42		
O=[N+]([O-])c1cccc(S(=O)(=O)N2CCN(S(=O)(=O)N3CCOCC3)CC2)c1 [Compound 158]	0.67	0.634	26.3	65.9	70.7	10	65.9			
CC(=O)Nc1ccc(NC(=O)c2cc(=O)c3cc(C)cc(C)c3o2)cc1 [Compound 159]	-4.25	-1.91	17.1	106	107		106			
COc1ccc(/C=C(\NC(=O)c2ccc(C)cc2)C(=O)Nc2ccc(C(=O)O)cc2)cc1 [Compound 160]	-2.5	-3.36	16	99.8	101		99.8			
O=S(=O)(c1ccccc1)N1CCCC(c2nc(O)c3nnn(Cc4cccc(Cl)c4)c3n2)C1 (stereo not shown) [Compound 161]	-37	-17.7	22.4	48.1	55		48.1			
COc1cccc(NC(=O)c2ccc3c(c2)CCCC3)c1 [Compound 162]	-31.8	-27.5	26.3	54.3	55.3		54.3			
CN(C)CCNc1ncnc2sc(-c3ccccc3)cc12 [Compound 163]	-0.804	-0.389	19.4	78.1	78.3	10	78.1			
CCCN1C2CCCC1CC(NC(=O)c1cccc([N+](=O)[O-])c1)C2 (stereo not shown) [Compound 164]	1.16	0.0123	22	91.6	91.8	10	91.6		Partial	42
O=C(NCCc1ccc(F)cc1)N[C@@H](Cc1ccccc1)C(=O)O [Compound 165]	-20.5	-20.4	0	108	109		108			
O=C(CN1CCOCC1)NCc1cc([N+](=O)[O-])ccc1O [Compound 166]	10.3	15.6	41.7	87.7	104		87.7			
COc1cc(Cl)cc(CN2CCC(CCC(=O)NC3CC3)CC2)c1OC [Compound 167]	-38.2	-33.5	9.56	44	48.6		44			
COc1ccccc1C(=O)NCCOc1ccc(C(C)(C)C)cc1 [Compound 168]		0	35.8	77.8	82.9		77.8			
COc1nccc(NCc2ccccc2)c1C#N [Compound 169]	-18.2	-21.6	0.301	64.3	64.8	10	64.3			
Cc1ccc(-c2csnn2)cc1 [Compound 170]	2.36	5.33	22.2	87.6	87.8	10	87.6			
Cc1nc2c(cnn2-c2ccccc2)c(=O)n1/N=C/c1ccccc1 [Compound 171]	10	10.2	28.1	68.4	69.5	10	68.4			
CN(C)/C(S)=N/c1cccc(C(F)(F)F)c1 [Compound 172]	8.95	7.22	31.2	71.2	73.8	10	71.2			
CC(C)(C)N/C=C(\C#N)S(=O)(=O)c1ccc(Br)cc1 [Compound 173]	10.4	21.1	42.1	72.3	93		72.3			

SMILES	activation at 0.307 µM (48 h) [%]	activation at 1.53 µM (48 h) [%]	activation at 7.66 µM (48 h) [%]	activation at 38.3 µM (48 h) [%]	Emax [1] [%]	EC50 [µM]	Emax (read-out: Max Response [%]) [%]	Score (Table 8 Compound data)	Curve Description	Score
O=C(O)CCCNC(=O)CCn1nnc2ccccc2c1=O [Compound 174]	-21.7	-16.7	13.6	74.2	83.7		74.2			
CCNC(=O)COC(=O)c1cc(-c2ccco2)nc2ccccc12 [Compound 175]	-59.9	-45.5	5.39	48.1	54		48.1			
COc1cccc(N2C(=O)CC(N3CCc4ccccc4C3)C2=O)c1 (stereo not shown) [Compound 176]	-22.1	-16.9	5.26	95.9	96.1	10	95.9			
COC(=O)C1=NNC2(C)C(=O)N(c3ccc(C)cc3)C(=O)C12 (stereo not shown) [Compound 177]	1.31	0.295	16.2	71.1	71.5	10	71.1			
CCCOc1nc(SCCC)nc2c1cnn2-c1ccccc1 [Compound 178]	-21.2	-11.3	18.9	64.3	85.3		64.3			
COc1ccc(O)c(/C=N/NC(=O)c2cc(O)nc3ccccc23)c1 [Compound 179]	-35.4	-32.2	20.9	46.8	48.4		46.8			
CCOc1ccc(NC(=O)CN2C(=O)NC(CCSC)C2=O)cc1 (stereo not shown) [Compound 180]	0	-2.4	21.3	75.1	76.1	10	75.1			
COc1ccc(C(=O)CN2CCCCC2)cc1 [Compound 181]	12.4	12.9	18.9	92.8	93		92.8			
CNP(=O)(Oc1ccccc1)OC12CC3CC(CC(C3)C1)C2 (stereo not shown) [Compound 182]	0	0	34.7	93.6	98.2	10	93.6			
O=C(CCc1ccccc1)c1nnc(-c2ccccc2)o1 [Compound 183]	0	2.03	24.4	99.5	99.7	10	99.5			
COc1ccc(CNC(=O)COC(=O)CCc2c[nH]c3ccccc23)cc1 [Compound 184]	0	-0.551	26	83.9	85.5	10	83.9			
COc1ccccc1OCC(=O)N/N=C1/C=C(C)CC1 [Compound 185]	-21.6	-24	0	94.5	94.2	10	94.5			
CC(C(=O)Nc1ccc(C#N)cc1)N(C)CC(=O)Nc1cccc(F)c1 (stereo not shown) [Compound 186]	-37.2	-17.7	15.1	37.2	48		37.2			
COC(=O)C1SCC2C(=O)N(Cc3ccc(F)cc3)CC(=O)N21 (stereo not shown) [Compound 187]	-53.6	-42.4	-1.79	51.5	65.7		51.5			
COc1ccc(-c2cc(COc3ccccc3)on2)cc1 [Compound 188]	0	0.795	20	88.1	88.2	10	88.1			
Sc1nnc(Cn2cnc3ccccc32)n1-c1ccccc1 [Compound 189]	13.1	23.7	44	66.7	84.6		66.7			
CN(C#N)c1nccc(-c2cccs2)n1 [Compound 190]	-30.5	-25.3	6.31	79.6	87.5		79.6			
O=Cc1cnc(N2CCCCC2)s1 [Compound 191]	-18.1	-20	-4.2	96	96.3		96			
